The record followed here is patent US20150080580A1, “THIOUREA DERIVATIVES AS a-CHYMOTRYPSIN INHIBITORS” (priority 2013, published 2015).

The target of data set [1] is T1, α-Chymotrypsin (Bos taurus, UniProt P00766).
T1 construct: purchased Sigma-Aldrich (USA) C4129; host or cells: bovine pancreas
Kind of data set: α-Chymotrypsin inhibition kinetic study (Lineweaver-Burk, Dixon, Hanes-Woolf plots). It is filed as biochemical, bovine. The following applies: for Type of inhibition: from Lineweaver-Burk, Dixon and Hanes-Woolf plots; for Ki: substrate SPpNA 0.4-3.2 mM, n = 3, read-out: Ki ± SEM. The source says:
(§1) α-Chymotrypsin (bovine pancreas, C4129) and N-succinyl-L-phenylalanine-p-nitroaniline (S2628) were purchased from Sigma-Aldrich (USA). Chymostatin (152845) from MP Biomedicals, LLC, USA, Tris(hydroxymethyl)aminomethane from Scharlau Chemie Barcelona, Spain and all other reagents were obtained from E. Merck and were of analytical grade. All other solvents and reagents were of analytical grade and used directly without purification.
The change in concentration of the substrate/product (rate of reaction) was measured as optical density per minute (OD/min). This OD/min was obtained by incorporating different concentrations of compounds over substrate (SPpNA) concentrations between 0.4 mM and 3.2 mM in micro-plate reader. Reciprocal of OD/min against the reciprocal of the substrate concentration, defined as Lineweaver-Burk plot (and its secondary plot; slope vs compound concentration); the Dixon plot (and its secondary plot; slope vs reciprocal of compound concentration) and then Hanes-Woolf plot were plotted (Lineweaver et al., 1934; Dixon, 1953; Segel, 1993) Graphs were plotted using GraFit 4 (Erithacus Software Limited, Surrey, UK) and GraphPad Prism 5 (GraphPad Software, California, USA). The types of inhibition were determined by the graphical views of Dixon plots, Lineweaver-Burk plots and their secondary plots as well as Hanes-Woolf plot. The Ki values, obtained directly from the software, also were cross-checked and tallied in these graphs. Final concentration of DMSO was maintained 5.5%.

For data set [2], the target named is T1, α-Chymotrypsin. Kind of data set: α-Chymotrypsin inhibition assay (SPpNA substrate, absorbance at 410 nm). It is filed as biochemical, bovine. The following applies: for IC50: α-chymotrypsin, substrate SPpNA 0.4 mM, pH 7.6, 30° C., n = 3. Here is the method:
as §1
This was performed in 50 mM Tris-HCl buffer pH 7.6 with 10 mM CaCl2. α-Chymotrypsin (12 units/mL prepared in 50 mM Tris-HCl buffer) with the different concentration of test compounds prepared in DMSO. It was then incubated at 30° C. for 25 min. The reaction was started by the addition of the substrate, N-succinyl-L-phenylalanine-p-nitroanilide (final concentration of 0.4 mM, prepared in the buffer as mentioned above). The change in absorbance due to released p-nitroaniline was continuously monitored at 410 nm (Choudhary et al., 2011). All the experiments were in a final volume of 200 μL in triplicate, and data was taken using a micro-plate reader (SpectraMax M2, Molecular Devices, Calif., USA).
The results were processed by using SoftMax Pro 4.8 then analyzed by MS Excel software. The % of inhibition based upon initial velocity and calculated as: […]
IC50 (Inhibition of enzymatic hydrolysis of the substrate SPpNA by 50%) value was calculated using EZ-Fit software (Perellela Scientific, Inc., Amherst, Mars, USA).

Data set [3] is described as follows: Cell proliferation inhibition (cytotoxicity) MTT assay for 3T3 cell line. It is filed as cell-based, Mouse. The following applies: 3T3 mouse fibroblast cells; 3T3 mouse fibroblasts, MTT, 72 hrs, n = 3; read-out: 3T3 cell-line GI50 ± SEM. How it is done: It was evaluated by using the MTT (3-[4,5-dimethylthiazole-2-yl]-2,5-diphenyl-tetrazolium bromide) assay (Mosmann, 1983). The 3T3 cell-lines (Mouse Fibroblasts) were cultured in Dulbecco's Modified Eagle's Medium, which was later supplemented with 5% of bovine serum, 100 IU/mL of penicillin, and 100 μg/mL of streptomycin, in 5% CO2 incubator at 37° C. Exponentially growing cell, 1×10^4 cells/well incorporated into each well of 96-well plates. Then, fresh the medium containing different concentrations of compounds were loaded in each well after 24 hours. Again, after 72 hrs, fresh the medium containing 0.5 mg/mL MTT were loaded in each well, and incubated further for 4 hrs. Subsequently, the media containing MTT was replaced by 100 μL of DMSO for 15 min, and then the absorbance was taken at 570 nm.

Turning to `S=C(Nc1ccc(Cl)cc1)Nc1cccc(Cl)c1` [Compound 1, 1-(3-Chlorophenyl)-3-(4-chlorophenyl) thiourea], on α-Chymotrypsin [1], the Type of inhibition result is “mixed-type” and the Ki was 8.6 ± 0.8 µM. For the same molecule, at α-Chymotrypsin [2], half-maximal inhibition (IC50) was put at 11.6 µM. Also, in data set [3], the 50% growth inhibitory concentration (GI50) at 72 h was above 30 µM.

As to `S=C(Nc1cccc(Cl)c1)Nc1ccc(Cl)c(Cl)c1` [Compound 2, 1-(3-Chlorophenyl)-3-(3,4-dichlorophenyl) thiourea], on α-Chymotrypsin [1], the Type of inhibition entry was “non-competitive-type” and the inhibitory constant (Ki) stood at 15.5 ± 0.4 µM. This molecule also registered an IC50 against α-Chymotrypsin [2] of 18.8 ± 0.2 µM. For the same molecule, in data set [3], the GI50 at 72 h is above 30 µM.

`S=C(Nc1cccc(Cl)c1)Nc1cccc(Cl)c1` [Compound 3, 1,3-Bis(3-chlorophenyl) thiourea]: at α-Chymotrypsin [1], the Type of inhibition result was “Mixed” and the Ki was determined as 15.9 ± 1.5 µM. Half-maximal inhibition against α-Chymotrypsin [2] (IC50) was put at 23.3 µM. The GI50 at 72 h in data set [3] was above 30 µM.

As for `COc1cccc(NC(=S)Nc2cccc(Cl)c2)c1` [Compound 4, 1-(3-Chlorophenyl)-3-(3-methoxyphenyl) thiourea], on α-Chymotrypsin [1], the Type of inhibition result is on record as “Mixed” and the Ki is 21.2 ± 1.5 µM. Further, on α-Chymotrypsin [2], the IC50 was 25.4 ± 0.2 µM. Also, the GI50 at 72 h in data set [3] is above 30 µM.

In the case of `COc1ccc(NC(=S)Nc2cccc(Cl)c2)cc1` [Compound 6, 1-(3-Chlorophenyl)-3-(4-methoxyphenyl) thiourea], on α-Chymotrypsin [1], the Type of inhibition result is “Mixed” and the Ki turned out to be 25.6 ± 0.9 µM. This molecule also returned an IC50 against α-Chymotrypsin [2] of 34.3 ± 2.8 µM. In data set [3], the GI50 at 72 h is above 30 µM.

As to `Cc1cccc(NC(=S)Nc2cccc(Cl)c2)c1` [Compound 10, 1-(3-Chlorophenyl)-3-m-tolylthiourea], at α-Chymotrypsin [1], the Type of inhibition entry was “Mixed” and the Ki is 31.6 ± 1.8 µM. In addition, inhibition against α-Chymotrypsin [2] was half-maximal at 48.5 ± 1.7 µM (IC50). Further, in data set [3], the GI50 at 72 h is above 30 µM.

Turning to `Fc1ccc(NC(=S)Nc2cccc(Cl)c2)cc1F` [Compound 11, 1-(3-Chlorophenyl)-3-(3,4-difluorophenyl) thiourea], on α-Chymotrypsin [1], the Type of inhibition result is recorded as “Competitive” and the Ki came out at 49.8 ± 2.6 µM. At α-Chymotrypsin [2], the IC50 came to 66.9 ± 4.9 µM. Further, in data set [3], the GI50 at 72 h is above 30 µM.

As to `Fc1ccc(NC(=S)Nc2cccc(Cl)c2)cc1` [Compound 12, 1-(3-Chlorophenyl)-3-(4-fluorophenyl) thiourea], at α-Chymotrypsin [1], the Type of inhibition result is given as “Competitive” and the Ki is 62.5 ± 2.5 µM. In addition, the IC50 against α-Chymotrypsin [2] is 68.4 ± 8.5 µM. Further, the GI50 at 72 h in data set [3] was above 30 µM.

On to `S=C(Nc1cccc(Cl)c1)Nc1cccc(Cl)c1Cl` [Compound 13, 1-(3-chlorophenyl)-3-(2,3-dichlorophenyl) thiourea], for which, at α-Chymotrypsin [1], the Type of inhibition result was “Competitive” and the Ki is 87.3 ± 6.7 µM. For the same molecule, the IC50 against α-Chymotrypsin [2] came to 107 ± 9.1 µM. Besides, the 50% growth inhibitory concentration (GI50) at 72 h in data set [3] is above 30 µM.

Take `Cc1ccc(C)c(NC(=S)Nc2cccc(Cl)c2)c1` [Compound 14, 1-(3-Chlorophenyl)-3-(2,5-dimethylphenyl) thiourea]: at α-Chymotrypsin [1], the Type of inhibition entry is given as “Competitive” and the Ki was 107 ± 5.5 µM. On α-Chymotrypsin [2], this molecule registered an IC50 of 151 ± 8.8 µM. The GI50 at 72 h in data set [3] was above 30 µM.

Take `Cc1ccc(NC(=S)Nc2cccc(Cl)c2)c(C)c1` [Compound 15, 1-(3-Chlorophenyl)-3-(2,4-dimethylphenyl) thiourea]: at α-Chymotrypsin [1], the Type of inhibition entry is “Non- Competitive” and the Ki was 173 ± 7.9 µM. The molecule also gave an IC50 against α-Chymotrypsin [2] of 192 ± 9.2 µM. For the same molecule, the GI50 at 72 h in data set [3] is above 30 µM.

As for `S=C(Nc1cccc(Cl)c1)Nc1c(Cl)cccc1Cl` [Compound 16, 1-(3-Chlorophenyl)-3-(2,6-dichlorophenyl) thiourea], on α-Chymotrypsin [1], the Type of inhibition entry is listed as “Competitive” and the Ki worked out at 210 ± 11.8 µM. Half-maximal inhibition at α-Chymotrypsin [2] (IC50) was put at 247.3 ± 1.7 µM. Besides, in data set [3], the GI50 at 72 h was above 30 µM.

As to `Cc1ccccc1NC(=S)Nc1cccc(Cl)c1` [Compound 17, 1-(3-Chlorophenyl)-3-o-tolylthiourea], on α-Chymotrypsin [1], the Type of inhibition entry is given as “Competitive” and the Ki amounted to 329 ± 11.6 µM. This molecule also registered an IC50 at α-Chymotrypsin [2] of 387 ± 13.1 µM. The GI50 at 72 h in data set [3] was above 30 µM.

On to `S=C(NCc1ccncc1)Nc1cccc(Cl)c1` [Compound 18, 1-(3-Chlorophenyl)-3-(pyridin-4-ylmethyl)thiourea], for which, on α-Chymotrypsin [1], the Type of inhibition entry is “Competitive” and the Ki stood at 148 ± 4.8 µM. The same molecule had an IC50 at α-Chymotrypsin [2] of 186 ± 12.8 µM. Further, the GI50 at 72 h in data set [3] is above 30 µM.

In the case of `S=C(Nc1cccnc1)Nc1cccc(Cl)c1` [Compound 19, 1-(3-Chlorophenyl)-3-(pyridin-3-yl) thiourea], on α-Chymotrypsin [1], the Type of inhibition result was “Competitive” and the Ki was determined as 166 ± 5.9 µM. Besides, at α-Chymotrypsin [2], the IC50 was 199 µM. Also, the GI50 at 72 h in data set [3] is above 30 µM.

With `S=C(Nc1ccccc1)Nc1ccc(Br)cc1` [Compound 20, 1-(4-Bromophenyl)-3-phenylthiourea], at α-Chymotrypsin [1], the Type of inhibition result is “competitive-type” and the Ki was found to be 21.1 ± 2.5 µM. The IC50 against α-Chymotrypsin [2] was 45.7 ± 2.9 µM. In addition, in data set [3], the GI50 at 72 h is above 30 µM.

For the molecule `S=C(Nc1ccccc1)Nc1cccc(Br)c1` [Compound 21, 1-(3-Bromophenyl)-3-phenylthiourea], at α-Chymotrypsin [1], the Type of inhibition result was “Mixed” and the Ki stood at 60.8 ± 7.4 µM. Moreover, the IC50 at α-Chymotrypsin [2] stood at 79.2 ± 0.6 µM. Besides, in data set [3], the GI50 at 72 h was above 30 µM.

Take `S=C(Nc1cccc(Cl)c1)Nc1ccccc1Cl` [Compound 23, 1-(2-Chlorophenyl)-3-(3-chlorophenyl) thiourea]: at α-Chymotrypsin [2], the “α-chymotrypsin inhibition (in words)” value is reported as “failed to show any inhibition” and the IC50 was above 500 µM.

For the molecule `Cc1cccc(C)c1NC(=S)Nc1cccc(Cl)c1` [Compound 24, 1-(3-Chlorophenyl)-3-(2,6-dimethylphenyl) thiourea], the IC50 against α-Chymotrypsin [2] is above 500 µM.

As to `Cc1cccnc1NC(=S)Nc1cccc(Cl)c1` [Compound 25, 1-(3-Chlorophenyl)-3-(3-methylpyridin-2-yl)thiourea], at α-Chymotrypsin [2], the IC50 was above 500 µM.

`S=C(Nc1cccc(Cl)c1)Nc1cccnc1Cl` [Compound 26, 1-(3-Chlorophenyl)-3-(2-chloropyridin-3-yl)thiourea] had an IC50 against α-Chymotrypsin [2] above 500 µM.

At α-Chymotrypsin [2], `COc1ccc(OC)c(NC(=S)Nc2ccccc2)c1` [Compound 27, 1-(2,5-Dimethoxyphenyl)-3-phenylthiourea] came in with an IC50 above 500 µM.

On α-Chymotrypsin [2], `S=C(Nc1ccccc1)Nc1ccccn1` [Compound 28, 1-Phenyl-3-(pyridin-2-yl) thiourea] displayed an IC50 above 500 µM.

Consider `S=C(Nc1ccccc1)Nc1cccnc1` [Compound 29, 1-Phenyl-3-(pyridin-3-yl) thiourea], for which, on α-Chymotrypsin [2], the “α-chymotrypsin inhibition (in words)” value is “inactive” and the IC50 is above 500 µM.

The molecule `S=C(Nc1ccccc1)Nc1ccncc1` [Compound 30, 1-Phenyl-3-(pyridin-4-yl) thiourea] yielded an IC50 against α-Chymotrypsin [2] above 500 µM.

Regarding `Cc1cccnc1NC(=S)Nc1ccccc1` [Compound 31, 1-(3-Methylpyridin-2-yl)-3-phenylthiourea], on α-Chymotrypsin [2], the IC50 is above 500 µM.

For the molecule `Cc1ccc(NC(=S)Nc2ccccc2)nc1C` [Compound 32, 1-(5,6-Dimethylpyridin-2-yl)-3-phenylthiourea], on α-Chymotrypsin [2], the IC50 was above 500 µM.

Regarding `S=C(Nc1ccccc1)Nc1cccnc1Cl` [Compound 33, 1-(2-Chloropyridin-3-yl)-3-phenylthiourea], the IC50 at α-Chymotrypsin [2] is above 500 µM.

The molecule `S=C(NCc1cccnc1)Nc1ccccc1` [Compound 34, 1-Phenyl-3-(pyridin-3-ylmethyl)thiourea] showed an IC50 against α-Chymotrypsin [2] above 500 µM.

`S=C(NCc1ccncc1)Nc1ccccc1` [Compound 35, 1-Phenyl-3-(pyridin-4-ylmethyl)thiourea]: at α-Chymotrypsin [2], the IC50 is above 500 µM.

For orientation: Ki means a measure of affinity in units of concentration, obtained from inhibition or displacement. As usually defined, the IC50 is the concentration at which inhibition is half-maximal. The low end stands for greater potency in that assay, the high end for weaker potency in that assay. One may read the GI50 as the concentration that inhibits growth by half.
